# Measured values as given in patent US20150053211A1, “Cleaning and safe mouth guard solution” (priority 2013, published 2015).
# How the values were obtained:
# [1] = system: S. aureus; assay: Kill tests using S. aureus (SIK test); assay type: cell-based; conditions: LAE.HCl at 200 ppm versus a product containing 27% ethanol and 1890 ppm of essential oils
# Method: One of the commercial products that was analyzed not only contains a large amount of ethanol, but contains three essential biocidal oils. Specifically it contains 900 ppm of eucalyptol, 490 ppm of Thymol, and 500 ppm of D-menthol, for a total of 1890 ppm of total active constituents. In contrast our invention is N^α-lauroyl-L-arginine-ethyl ester hydrochloride, also known as LAE.HCl, which is used as a preservative in the food and cosmetic industries. • 1. N^α—lauroyl-L-arginine-ethyl ester hydrochloride, (LAE.HCl) salt is naturally derived and metabolizes readily to L-arginine, an essential amino acid, lauric acid, and very low ppm amounts of ethanol. All degradation by products are found naturally in the body and are totally harmless. • 2. LAE.HCl has undergone extensive toxicity, and safety studies, and it is approved by the FDA and EPA for food and cosmetic industries. • 3. […] The formulation of our invention includes a natural sweetener xylitol. Xylitol is known to reduce cavities as well as inhibiting the adhesion of bacteria on enamel/dentin. The selection of xylitol has the above advantages over other natural or synthetic sweeteners. (“Science Daily”, Feb. 15, 2007) • 5. Substantivity product of this invention has been proven experimentally versus the existing commercial products resulting in longer-lasting efficacy, using a zone of inhibition tests
# 1. […]
# [2] = system: S. aureus; assay: Substantivity test on 100% cotton fabric, zone of inhibition (ZOI); assay type: cell-based; conditions: 600 ppm, dried on 100% cotton fabric, saliva added to plates
# Method: 2. Substantivity tests on 100% cotton fabric using S. aureus as the microorganism/zone of inhibition (ZOI).
# Both samples (600 ppm LAE.HCl and control) were applied to 100% cotton fabric at the same volumes and allowed to dry at room temperature. Samples were then placed in an agar plates inoculated with S. aureus and incubated. To these plates was added saliva from the same person to determine if either sample would produce a zone inhibition. A negative control was also run at the same time. Only the product of this invention gave a positive ZOI.
smiles,measurement,setting,value
"CCCCCCCCCCCC(=O)N[C@@H](CCCNC(=N)N)C(=O)OCC.Cl [LAE.HCl, N^α-lauroyl-L-arginine-ethyl ester hydrochloride]",kill,[1],comparable kill
same,zone of inhibition (ZOI),[2],positive ZOI
